From publication PMC10418599, “Quercetins, Chlorogenic Acids and Their Colon Metabolites Inhibit Colon Cancer Cell Proliferation at Physiologically Relevant Concentrations” (International Journal of Molecular Sciences, 2023)

Assays:
[1] = test system: SW480 cell line; assay: Cell metabolism of phenolic compounds (UHPLC-HR-MS analysis of cell media); assay type: in vitro ADME, Human; settings: for Concentration of substrate in cell medium: initial 50 μmol/L
Method: To analyze the metabolism of phenolic compounds by Caco-2 and SW480 cells, the cell culture media were withdrawn after 0, 24, 48 and 72 h of incubation. Phenolic compounds were extracted from the culture media by following the procedure reported in Sala et al.. Briefly, 100 μL of cold methanol was mixed with 100 μL of cell media and vortexed for 1 min. The mixture was then centrifuged at 10,000× g (4 °C, 5 min) and the supernatant was injected, after appropriate dilution, in an ultra-high-performance liquid chromatography high-resolution mass spectrometry system (UHPLC-HR-MS).
The HR-MS system consisted of a UHPLC Ultimate 3000 separation module, equipped with a C18 column (Acquity UPLC HSS C18 reversed phase, 2.1 × 100 mm, 1.8 μm particle size, Waters, Milan, Italy) and coupled with a Q Exactive Hybrid Quadrupole-Orbitrap Mass Spectrometer (Thermo Scientific, San Jose, CA, USA). Mobile phases consisted of a mixture of water containing formic acid (0.1%) (mobile phase A) and acetonitrile containing formic acid (0.1%) (mobile phase B). The gradient began at 1% B, reaching 40% B over 20 min. To wash the column, the mobile phase B concentration was raised to 99% over 6 min and kept at 99% for 3 min before returning to the initial conditions. The MS and MS/MS conditions are fully described in Martini et al..
Quantification was carried out by building external calibration curves with the available standard compounds.

[2] = test system: SW480 cell line; assay: Anti-proliferative assay (MTS cell proliferation assay); assay type: cell-based, Human; settings: for IC50: maximum tested concentration 200 μmol/L
Method: Human colon cancer Caco-2 and SW480 cell lines were cultured and grown as previously reported. […] Incubation was carried out for 24, 48 and 72 h. Data were compared with a control solution containing 0.5% DMSO in cell medium and representing 100% proliferation. In addition, six different mixes were prepared to simulate the simultaneous presence of parent phenolic compounds and metabolites by mimicking the possible human inter-individual variability in colon metabolism of phenolic compounds. Two sets of mixes were prepared to consider the colon metabolism of quercetins and chlorogenic acids. […] For each set of mixtures (QUE and CGA mixtures), three different mixes were formulated. One set of mixes mimicked the low-producers metabotype and contained 90% parent compounds and 10% metabolites (mixes QUE-LP and CGA-LP). Another set of mixes was prepared to simulate the high-producers metabotype and contained 10% parent compounds and 90% metabolites (mixes QUE-HP and CGA-HP). Finally, a third set of mixes was prepared with equimolar amounts of all the compounds (mixes QUE-EQ and CGA-EQ). […] Cell proliferation was assessed by the MTS assay as previously described. […] The IC50 values were calculated through non-linear regression analysis by plotting the base-10 logarithm of the phenolic compound concentration vs. the percentage of inhibition.

[3] = SW480, 24 h, substrate 3-O-Caffeoylquinic acid trans 50 μmol/L
[4] = SW480, 24 h, substrate 5-O-Caffeoylquinic acid trans 50 μmol/L
[5] = SW480, 48 h, substrate 5-O-Caffeoylquinic acid trans 50 μmol/L
[6] = SW480, 72 h, substrate 3-O-Caffeoylquinic acid trans 50 μmol/L
[7] = SW480, 72 h, substrate 5-O-Caffeoylquinic acid trans 50 μmol/L
[8] = SW480, 24 h, substrate Quercetin 50 μmol/L
[9] = SW480, 48 h, substrate Quercetin 50 μmol/L
[10] = SW480, 48 h, substrate Quercetin-3-O-glucoside-4′-O-glucoside 50 μmol/L
[11] = SW480, 48 h, substrate Quercetin-4′-O-glucoside 50 μmol/L
[12] = SW480, 72 h, substrate Quercetin 50 μmol/L
[13] = SW480, 72 h, substrate Quercetin-3-O-glucoside-4′-O-glucoside 50 μmol/L
[14] = SW480, 72 h, substrate Quercetin-4′-O-glucoside 50 μmol/L
[15] = SW480, 48 h, substrate 3-O-Caffeoylquinic acid trans 50 μmol/L
[16] = SW480, 72 h, substrate 3,5-di-O-Caffeoylquinic acid 50 μmol/L
[17] = SW480, 24 h, substrate 3,5-di-O-Caffeoylquinic acid 50 μmol/L
[18] = SW480, 48 h, substrate 3,5-di-O-Caffeoylquinic acid 50 μmol/L

O=C(/C=C/c1ccc(O)c(O)c1)O[C@@H]1C[C@](O)(C(=O)O)C[C@@H](O)[C@H]1O [3-O-Caffeoylquinic acid, 3-O-caffeoylquinic acid]
Concentration of substrate in cell medium ([1]; SW480, 24 h, listed as 3-O-Caffeoylquinic acid trans): 23340 ± 70 nM
Concentration of newly formed metabolite ([1]; SW480, 24 h, substrate 3,5-di-O-Caffeoylquinic acid 50 μmol/L, listed as 3-O-Caffeoylquinic acid trans): 90 ± 10 nM
Concentration of substrate in cell medium ([1]; SW480, 48 h, listed as 3-O-Caffeoylquinic acid trans): 19540 ± 70 nM
Concentration of newly formed metabolite ([1]; SW480, 48 h, substrate 3,5-di-O-Caffeoylquinic acid 50 μmol/L, listed as 3-O-Caffeoylquinic acid trans): 130 ± 10 nM
Concentration of newly formed metabolite ([1]; SW480, 48 h, substrate 5-O-Caffeoylquinic acid trans 50 μmol/L, listed as 3-O-Caffeoylquinic acid trans): 5140 ± 70 nM
Concentration of substrate in cell medium ([1]; SW480, 72 h, listed as 3-O-Caffeoylquinic acid trans): 19830 ± 50 nM
Concentration of newly formed metabolite ([1]; SW480, 72 h, substrate 5-O-Caffeoylquinic acid trans 50 μmol/L, listed as 3-O-Caffeoylquinic acid trans): 5550 ± 90 nM
Percentage of inhibition of SW480 growth ([2]; 100 μmol/L, 72 h): 29.6%
IC50 ([2]; SW480, 48 h of incubation): > 200 µM
IC50 ([2]; SW480, 72 h of incubation): > 200 µM

O=C(/C=C/c1ccc(O)c(O)c1)O[C@@H]1C[C@](O)(C(=O)O)C[C@@H](O)[C@H]1O [3-O-Caffeoylquinic acid cis, 3-O-Caffeoylquinic acid]
Concentration of newly formed metabolite [1, 3]: 4720 ± 40 nM
Concentration of newly formed metabolite [1, 4]: 410 ± 50 nM
Concentration of newly formed metabolite [1, 5]: 360 ± 40 nM
Concentration of newly formed metabolite [1, 6]: 3270 ± 170 nM
Concentration of newly formed metabolite [1, 7]: 720 ± 30 nM

COc1cc(-c2oc3cc(O)cc(O)c3c(=O)c2O)ccc1O [Isorhamnetin]
Concentration of newly formed metabolite [1, 8]: 1610 ± 10 nM
Concentration of newly formed metabolite [1, 9]: 3460 ± 80 nM
Concentration of newly formed metabolite [1, 10]: 10 ± 0 nM
Concentration of newly formed metabolite [1, 11]: 790 ± 30 nM
Concentration of newly formed metabolite [1, 12]: 3760 ± 110 nM
Concentration of newly formed metabolite [1, 13]: 10 ± 0 nM
Concentration of newly formed metabolite [1, 14]: 1030 ± 40 nM

COc1ccc(-c2oc3cc(O)cc(O)c3c(=O)c2O)cc1O [4′-O-methylquercetin]
Concentration of newly formed metabolite [1, 8]: 970 ± 40 nM
Concentration of newly formed metabolite [1, 9]: 1650 ± 40 nM
Concentration of newly formed metabolite [1, 10]: 10 ± 0 nM
Concentration of newly formed metabolite [1, 11]: 490 ± 10 nM
Concentration of newly formed metabolite [1, 12]: 1830 ± 250 nM
Concentration of newly formed metabolite [1, 13]: 10 ± 0 nM
Concentration of newly formed metabolite [1, 14]: 710 ± 40 nM

O=C(O)/C=C/c1ccc(O)c(O)c1 [Caffeic acid]
Concentration of newly formed metabolite [1, 3]: 440 ± 10 nM
Concentration of newly formed metabolite [1, 15]: 430 ± 10 nM
Concentration of newly formed metabolite [1, 5]: 80 ± 0 nM
Concentration of newly formed metabolite [1, 16]: 1070 ± 10 nM
Concentration of newly formed metabolite [1, 6]: 570 ± 10 nM
Concentration of newly formed metabolite [1, 7]: 90 ± 10 nM

COc1cc(/C=C/C(=O)OC2C(O)CC(O)(C(=O)O)CC2O)ccc1O (centres unmarked) [4-O-Feruloylquinic acid]
Concentration of newly formed metabolite [1, 3]: 20 ± 0 nM
Concentration of newly formed metabolite [1, 4]: 40 ± 0 nM
Concentration of newly formed metabolite [1, 15]: 40 ± 0 nM
Concentration of newly formed metabolite [1, 5]: 50 ± 0 nM
Concentration of newly formed metabolite [1, 6]: 70 ± 0 nM
Concentration of newly formed metabolite [1, 7]: 40 ± 0 nM

O=C(/C=C/c1ccc(O)c(O)c1)OC1C(O)CC(OC(=O)/C=C/c2ccc(O)c(O)c2)(C(=O)O)CC1O (centres unmarked) [1,4-di-O-Caffeoylquinic acid]
Concentration of newly formed metabolite [1, 17]: 910 ± 30 nM
Concentration of newly formed metabolite [1, 18]: 660 ± 30 nM
Concentration of newly formed metabolite [1, 16]: 550 ± 10 nM

O=C(/C=C/c1ccc(O)c(O)c1)OC1[C@H](O)CC(O)(C(=O)O)C[C@H]1O (stereo partly drawn) [4-O-Caffeoylquinic acid trans, 4-O-Caffeoylquinic acid]
Concentration of newly formed metabolite [1, 17]: 70 ± 10 nM
Concentration of newly formed metabolite [1, 3]: 6890 ± 60 nM
Concentration of newly formed metabolite [1, 4]: 12690 ± 120 nM
Concentration of newly formed metabolite [1, 18]: 120 ± 10 nM
Concentration of newly formed metabolite [1, 15]: 8070 ± 240 nM
Concentration of newly formed metabolite [1, 5]: 14800 ± 90 nM
Concentration of newly formed metabolite [1, 16]: 250 ± 10 nM
Concentration of newly formed metabolite [1, 6]: 12020 ± 240 nM
Concentration of newly formed metabolite [1, 7]: 11930 ± 30 nM
